US6831080B2, “Cinnamide derivatives as KCNQ potassium channel modulators” (Bristol-Myers Squibb Company, priority 2001, dated 2004)

Experiments:
mKCNQ2 channels = molecular target: T1, mKCNQ2 channels (Mus musculus, UniProt Q9Z351); assay: Whole-cell patch-clamp, HEK 293 stable cell line expressing mKCNQ2 channels; format: cell-based; conditions: HEK 293 mKCNQ2, Hill fit; for EC50: @ −40 mV
T1 construct: expressed in transfected cells
Experimental: Whole-cell patch-clamp recordings were made from an HEK 293 stable cell line expressing mKCNQ2 channels, maintained in culture for 1-2 days. Patch pipettes had initial resistances of 2.5-4 MΩ. Currents were recorded with an EPC-9 amplifier (HEKA, Lambrecht, Germany) controlled with software (Pulse, HEKA) run on a standard lab PC. Series resistance compensation was used during current recording, and set at 80%. The series resistance (R) and cell capacitance (C) were determined electronically by subtracting the capacitive currents at the onset and offset of a 5 mV voltage step. The cancellation of whole-cell capacitance transients was virtually complete in all cells. Analog current signals were low-pass filtered at 2.9 kHz using a four-pole Bessel filter −3 dB) and stored on a local network server computer at a sampling rate of […]. All recordings were performed at room temperature (20-22° C.). The pipette solution contained (mM): KCl, 150; CaCl2, 2.5; EGTA, 5; MgCl2, 1; HEPES, 10; pH to 7.3 with KOH, and Osmolality of 290-300 mOsm. The extracellular solution contained (mM): NaCl, 140; KCl, 2.5; CaCl2, 2.5; MgCl2, 1; glucose, 10; HEPES, 10; pH to 7.3 with NaOH, and Osmolality of 305-310 mOsm
Concentration response data were generated by measuring the difference in the steady-state amplitude of current in the presence of compound at the end of a 600 ms voltage-clamp step from a holding potential of −80 mV. The concentration-response data were fitted with Hill-type equations: […]
where I is the steady-state current at a given concentration of agonist [A]; and Imax, EC50 and nH are parameters estimated from the curve fit. In some cases the concentration-response data were fitted with equations consisting of the sum of two Hill-type components. Current-voltage (I/V) relationships for agonist-evoked currents were obtained by performing 600 ms voltage steps (−110 mV to +40 mV) in the absence and presence of agonist.

[1] = system: streptozoticin-induced tactile allodynia, Sprague Dawley rats; assay: Diabetic model of neuropathic pain (streptozoticin and von Frey test); format: in vivo, rat; conditions: 10 mg/kg, i.v.; von Frey thresholds over 90 min; STZ diabetic model
Experimental: To test agents for activity against systemic polyneuropathy nerve injury-induced tactile allodynia, animals were treated with streptozoticin (STZ) to create a diabetic condition by selective cytotoxic action upon pancreatic β-islet cells that produce insulin following the method of Courteix, et al. (Courteix C., et al., (1993) Pain, April;53(1):81-8). In brief, male Sprague Dawley rats (wt. 200-275 g) received an injection of STZ (75 mg/kg, i.p.) and diabetes was confirmed three weeks after STZ injection by measurement of tail vein blood glucose levels. After 3-4 weeks, paw withdrawal to light touch was assessed as described by Chaplan et al. (Chaplan S. R., et al., (1994) J Neurosci Methods, July;53(1):55-63). In brief, rats are placed in a plastic cage with a wire mesh bottom and allowed to acclimate for 15-30 minutes, until cage exploration and grooming stops. The plantar surface of each hind paw is touched with a series of von Frey hairs with varying stiffness requiring a known force to buckle to determine the nociceptive threshold. Adult male Sprague Dawley rats (avg. wt. 300 g) were tested in the present study. After acclimation, baseline von Frey thresholds were assessed for the injured hindpaw at -15 min. All test compounds were delivered at 0 min by the intravenous (i.v.) route in a volume of 0.5-2 ml/kg. […] Animals were tested in one of the following 4 treatment conditions: […] Following drug administration, von Frey thresholds are measured at 15, 30, 60 and 90 min. Data were analyzed by a 2-way repeated measures analysis of variance followed by Dunnett's test (p<0.05). Experimenters were kept blind to the treatment condition of rats they tested. […] Specifically, drug effects can be described in terms Δ% MPE according to the following equation: {[…] under the curve for von Frey thresholds of the drug-treated group; AUCvehicle=area under the curve for von Frey thresholds in the vehicle group; Time=duration of post-drug testing period (90 min); and Max=maximum von Frey threshold (15 g).

[2] = molecular target: cloned mouse KCNQ2 (mKCNQ2) (Mus musculus, UniProt Q9Z351); assay: KCNQ oocyte two-electrode voltage clamp, whole-cell outward current; format: cell-based; conditions: 10 μM; single holding potential (−40 μM [sic]); Xenopus oocytes
cloned mouse KCNQ2 (mKCNQ2), sequence (Q9Z351 whole entry): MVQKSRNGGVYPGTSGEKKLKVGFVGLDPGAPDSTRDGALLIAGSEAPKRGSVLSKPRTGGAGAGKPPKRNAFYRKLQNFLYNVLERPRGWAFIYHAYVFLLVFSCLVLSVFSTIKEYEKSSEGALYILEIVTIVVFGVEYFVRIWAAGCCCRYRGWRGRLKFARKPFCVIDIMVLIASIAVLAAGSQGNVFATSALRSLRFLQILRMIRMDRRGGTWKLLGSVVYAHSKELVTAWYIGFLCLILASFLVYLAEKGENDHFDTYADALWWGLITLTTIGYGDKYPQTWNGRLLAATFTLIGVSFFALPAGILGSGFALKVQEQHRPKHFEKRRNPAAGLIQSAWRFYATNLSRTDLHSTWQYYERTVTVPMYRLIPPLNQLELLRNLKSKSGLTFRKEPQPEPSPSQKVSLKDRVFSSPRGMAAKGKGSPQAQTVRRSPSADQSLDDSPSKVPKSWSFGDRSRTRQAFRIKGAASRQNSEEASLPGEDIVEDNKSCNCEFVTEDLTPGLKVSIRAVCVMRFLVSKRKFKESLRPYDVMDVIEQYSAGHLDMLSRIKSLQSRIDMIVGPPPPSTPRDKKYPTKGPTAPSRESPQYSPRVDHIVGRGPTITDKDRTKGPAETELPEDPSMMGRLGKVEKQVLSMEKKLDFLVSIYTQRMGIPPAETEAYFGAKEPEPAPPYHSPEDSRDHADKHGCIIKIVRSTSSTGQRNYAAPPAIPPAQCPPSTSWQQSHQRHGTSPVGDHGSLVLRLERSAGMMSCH
Experimental: The ability of compounds described in the present invention to open KCNQ channels and increase whole-cell outward (K^+) KCNQ-mediated currents was assessed under voltage-clamp conditions by determining their ability to increase cloned mouse KCNQ2 (mKCNQ2)-mediated, heteromultimeric KCNQ2/3 (mKCNQ2/hKCNQ3)-mediated, and human KCNQ5 (hKCNQ5)-mediated outward currents heterologously expressed in Xenopus oocytes. Oocytes were prepared and injected using standard techniques; each oocyte was injected with approximately 50 nl of mKCNQ2, or hKCNQ5 cRNA. In the case of mKCNQ2/h3 heteromultimeric channel expression, equal amounts (25-50 nL) of each cRNA were co-injected. […] Following injection, oocytes were maintained at 17° in ND96 medium consisting of (in mM): NaCl, 90; KCl, 1.0; CaCl2, 1.0; MgCl2, 1.0; HEPES, 5.0; pH 7.5. Horse serum (5%) and penicillin/streptomycin (5%) were added to the incubation medium. Recording commenced 2-6 days following mRNA injection. Prior to the start of an experiment oocytes were placed in a recording chamber and incubated in Modified Barth's Solution (MBS) consisting of (in mM): NaCl, 88; NaHCO3, 2.4; KCl, 1.0; HEPES, 10; MgSO4, 0.82; Ca(NO3)2, 0.33; CaCl2, 0.41; pH 7.5.
Oocytes were impaled with electrodes (1-2 MΩ) and standard 2-electrode voltage clamp techniques were employed to record whole-cell membrane currents. Recordings were accomplished using standard two-electrode voltage clamp techniques [Stuhmer, W., et al., Methods in Enzymology, Vol. 207: 319-339 (1992)]. Voltage-clamp protocols typically consisted of a series of voltage steps 1-5 sec duration, in +10 mV steps from a holding potential of −90 mV to a maximal potential of +40 mV; records were digitized at 5 kHz and stored on a computer using pClamp data acquisition and analysis software (Axon Instruments). Compounds were evaluated at a single concentration and at a single holding potential (−40 μM); the effect of the selected compounds of Formula I on KCNQ2 current was expressed as the percent of control current and is listed in Table I.

T1 sequence (Q9Z351 whole entry): as above

Row | activity at 10 µM [2] [%] | SMILES | EC50 (mKCNQ2 channels) [µM] | Emax (mKCNQ2 channels; HEK293, read-out: Imax (%)) [%] | AUC (Δ% MPE) [1]
1 |  | C[C@H](NC(=O)/C=C/c1ccc(F)cc1)c1ccc2ccccc2c1 [Example 1, (S)-3-(4-Fluoro-phenyl)-N-(1-naphthalen-2-yl-ethyl)acrylamide] | 9.2 | 237 | 
2 | 197 | C[C@H](NC(=O)/C=C/c1ccccc1)c1cccc(N2CCOCC2)c1 [Example 82, (S)-3-Phenyl-N-[1-(3-morpholin-4-yl-phenyl)ethyl]acrylamide] |  |  | 23 (10 mg/kg, i.v.) Δ% MPE
3 |  | C[C@H](NC(=O)/C=C/c1ccc(F)cc1)c1ccc(F)c(N2CCOCC2)c1 [Example 169, (S)-N-[1-(4-Fluoro-3-morpholin-4-yl-phenyl)-ethyl]-3-(4-fluoro-phenyl)-acrylamide] | 1 |  | 12 (10 mg/kg, i.v.) Δ% MPE
